Data taken from publication PMC7768359, “Synthesis of Platinum(II) Complexes with Some 1-Methylnitropyrazoles and In Vitro Research on Their Cytotoxic Activity” (Pharmaceuticals, 2020).

Assays:
[1] = Isomerization of complexes in solution; format: physicochemical; details: chloroform, acetone, DMSO, DMF
Text: Additionally, it is worth adding that complexation with 1-methyl-3-nitropyrazole, was unsuccessful, probably because of the steric hindrance of both methyl and nitro groups that constrain access to free pair of electrons of pyrazole nitrogen. Besides, the electrostatic repelling of the approaching tetrachloroplatinate anion by electron dense oxygen atoms of the nitro group may also be an important factor that can hinder and/or prevent the formation of a complex. […] The reason is that both symmetric and antisymmetric valence vibrations of cis Pt(II)complexes are active, contrary to trans isomers in which case only antisymmetric vibration is active.
A solution of 254 mg (2 mmol) of 1-methyl-5-nitropyrazole in 3 mL of acetone was mixed with a solution of 415 mg (1 mmol) of K2PtCl4 in 5 mL of water and maintained in darkness at 25 °C until the reaction completion (TLC, app. 3 days). […] Combustion and spectral analyses for the cis complex 3: Elemental analysis for formula C8H10N6O4Cl2Pt of compound 3: Calculated/Found (%): C 18.47/17.97, H 1.94/1.66, N 16.16/16.50, Cl 13.63/13.87. ^1H NMR (300.15 MHz, acetone-d6): δ[ppm] […] Combustion and spectral analyses for the trans complex 4: Elemental analysis for formula C8H10N6O4Cl2Pt of trans-complex 4: Calculated/Found (%): C 18.47/18.14, H 1.94/1.65, N 16.16/15.89, Cl 13.63/13.82. ^1H NMR (300.15 MHz, acetone-d6): δ[ppm] […]

HL-60 cells [2] = test: Determination of apoptosis by Annexin V / PI staining; format: cell-based, human; details: 48 h
Description: (§1) To establish how compounds 1 and 2 influence the cell cycle and cell death, the HL-60 human promyelocytic leukemia cell line was used. The results are outlined in the Figure 7 and Figure 8, respectively. […] This led to disturbances in the cell cycle progression, expressed as a significant decrease in G0/G1 and S phase, compared to the untreated control (Figure 7).
The HL-60 cells and compounds tested were prepared in the same way as for analysis of the cell cycle distribution. The cells were also exposed to camptothecin (2 µg/mL; Sigma-Aldrich, Steinheim, Germany) as a positive control of apoptosis induction. After 48 h of incubation, or in the case of camptothecin after 24 h, the cells were collected and washed in PBS (HIIET, Wroclaw, Poland) supplemented with 2% of fetal bovine serum and counted in a hemacytometer. The cells (2 × 10^5) were washed twice in PBS. Next, cells were suspended in 200 μL of the mixture of HEPES buffer: 10 mM HEPES, 150 mM NaCl, 5 mM KCl, 1 mM MgCl2, 1.8 mM CaCl2, (HIIET, Wroclaw, Poland) and Annexin V-FITC (Alexis Biochemicals, San Diego, CA, USA), each time freshly prepared according to the manufacturer’s recommendations. After 15 min of incubation in darkness at room temperature, propidium iodide (PI) solution (0.1 mg/mL) was added prior to analysis to give a final concentration of 10 µg/mL. […] Data were analyzed in a BD FACS Diva 6.2 program. […]

HL-60 cells [3] = test: Cell cycle analysis (propidium iodide, flow cytometry); format: cell-based, human; details: 80 µM, 48 h
Description: as §1
Cultured HL-60 cells (human acute promyelocytic leukemia) were seeded at a density of 2 × 10^5 cells/mL of culture medium on 24-well plates (Corning, NY, USA) to a final volume of 2 mL. […] The stock solutions of platinum derivatives were prepared as described above.
After 48 h of incubation, the cells were collected and washed in phosphate-buffered saline (PBS; HIIET, Wroclaw, Poland) supplemented with 2% of fetal bovine serum and counted in a hemocytometer. Then, the cells (1 × 10^6 per sample) were washed twice in cold PBS and fixed for 24 h in 70% ethanol at −20 °C. Following this, the cells were washed twice in PBS and incubated with RNAse (8 μg/mL, Fermentas GmbH, St. Leon-Rot, Germany) at 37 °C for 1 h. Finally, the cells were stained for 30 min with propidium iodide (0.5 mg/mL; Sigma-Aldrich, Steinheim, Germany) at 4 °C and the cellular DNA content was determined using a BD LSR Fortessa instrument (Becton Dickinson, San Jose, CA, USA) and WinMDI 2.8 software. The experiment was repeated at least three times.

Cn1c([N+](=O)[O-])cc[n+]1[Pt@SP3-2]([Cl])([Cl])[n+]1ccc([N+](=O)[O-])n1C [Compound 4, trans-dichloridobis(1-methyl-5-nitropyrazole)platinum(II)]
isomerization in solution [1]: occurred slowly in chloroform or acetone solutions but much faster in more polar aprotic solvents (DMSO, DMF)

Cn1cc([N+](=O)[O-])c[n+]1[Pt@SP3-2]([Cl])([Cl])[n+]1cc([N+](=O)[O-])cn1C [Compound 2, trans-dichloridobis(1-methyl-4-nitropyrazole)platinum(II)]
effect on the number of necrotic and late apoptotic HL-60 cells (HL-60 cells [2]; compared to 0.3 µM cisplatin and control): did not show any substantial effect

Cn1c([N+](=O)[O-])cc[n+]1[Pt@SP2-2]([Cl])([Cl])[n+]1ccc([N+](=O)[O-])n1C [Compound 3, cis-dichloridobis(1-methyl-5-nitropyrazole)platinum(II)]
isomerization in solution [1]: occurred slowly in chloroform or acetone solutions but much faster in more polar aprotic solvents (DMSO, DMF)

Cn1cc([N+](=O)[O-])c[n+]1[Pt@SP2-2]([Cl])([Cl])[n+]1cc([N+](=O)[O-])cn1C [Compound 1, cis-dichloridobis(1-methyl-4-nitropyrazole)platinum(II)]
cell death (Sub-G1) and cell cycle progression of HL-60 cells (HL-60 cells [3]): induced cell death (Sub-G1) | proapoptotic activity (Annexin V / propidium iodide) (HL-60 cells [2]; HL-60, 80 µM): statistically significant increase in early and late apoptotic cells
